Reference: patent publication US11931368B2, “Glucocorticoid “nintedanib” particles and their use” (CRITITECH, INC., priority 2017, dated 2024)

Experiments:
[1] = Particle size distribution (volume, laser-light diffraction); assay type: physicochemical
Text: The particle size of the particles of all aspects disclosed herein can be determined by a particle size analyzer instrument and the measurement is expressed as the mean diameter based on a volume distribution (volume). A suitable particle size analyzer instrument is one which employs the analytical technique of […]. A suitable laser-light diffraction particle size analyzer instrument is the Mastersizer, such as the Mastersizer 3000, available from Malvern Instruments, United Kingdom.

[2] = Specific surface area by BET isotherm; assay type: physicochemical
Procedure: As used herein, the “specific surface area” (SSA) is the total surface area of the particle per unit of compound mass as measured by the Brunauer-Emmett-Teller (“BET”) isotherm by the following method: a known mass between 200 and 300 mg of the analyte is added to a 30 mL sample tube. The loaded tube is then mounted to a Porous Materials Inc. SORPTOMETER®, model BET-202A. The automated test is then carried out using the BETWIN® software package and the surface area of each sample is subsequently calculated. Such an increase in SSA results in significant increases in dissolution rates in relevant media as compared to therapeutic particles produced by conventional means. The “therapeutic particles” can include both agglomerated therapeutic particles and non-agglomerated therapeutic particles; since the SSA is determined on a per gram basis it takes into account both agglomerated and non-agglomerated therapeutic particles in the composition. The BET specific surface area test procedure is a compendial method included in both the United States Pharmaceopeia and the European Pharmaceopeia.

Dv10 [1] [μm]	Dv50 [1] [μm]	Dv90 [1] [μm]	SSA (specific surface area) [2] [m^2/g]	Compound
10.9	39.0	74.4	4.11	CCC(=O)O[C@]1(C(=O)SCF)[C@H](C)C[C@H]2[C@@H]3C[C@H](F)C4=CC(=O)C=C[C@]4(C)[C@@]3(F)[C@@H](O)C[C@@]21C [Raw fluticasone, fluticasone propionate]
10.5	36.8	70.2	4.11	COC(=O)c1ccc2c(c1)NC(=O)/C2=C(\Nc1ccc(N(C)C(=O)CN2CCN(C)CC2)cc1)c1ccccc1 [Raw nintedanib, nintedanib]
